# Results taken from PubChem BioAssay AID624382 (Sanford-Burnham Center for Chemical Genomics, 2012).
# Active and inactive are the calls of the source. No rule for the calls is given here.
# Molecular target: Small ubiquitin-related modifier 1 (Homo sapiens) (UniProt P63165)
# Test: inhibitors of SUMO1 peptide binding, dose response, biochemical, fluorescence polarization, uHTS hits (AID 624382)
# Chain of Small ubiquitin-related modifier 1 (Homo sapiens) (P63165 whole entry, looked up): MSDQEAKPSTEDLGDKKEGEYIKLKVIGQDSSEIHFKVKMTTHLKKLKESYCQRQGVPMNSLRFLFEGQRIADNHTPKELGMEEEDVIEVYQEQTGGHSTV
row,SMILES,IC50
1,C=Cc1c(C)c2cc3[nH]c(cc4nc(cc5nc(cc1[nH]2)C(C)=C5CCC(=O)O)C(CCC(=O)O)=C4C)c(C)c3C=C,> 66.6 µM (inactive)
2,CCN(CC)P(=O)(NC(=O)C(Cl)(Cl)Cl)N(CC)CC.[Cl-].[Cl-].[Cl-].[Nd+3],> 66.6 µM (inactive)
3,C[c-]1[c-](C)[c-](C)[c-](C)[c-]1C.[Fe].c1cc2nccc(N3CCCC3)[c-]2c1 (stereo not drawn),11.9 µM
